The record followed here is patent publication US20260206761A1, “HETEROARYL-TRIAZOLE COMPOUNDS AS PESTICIDES” (Bayer Aktiengesellschaft, priority 2019, published 2026).

The structures appear in SMILES notation.

Common to all, as to type: in vivo
The test system of assay [1] is green peach aphid (Myzus persicae). Nature of the assay: Myzus persicae oral test. The note with it: 120 h, application rate 4 ppm, after 5 days. In a few lines:
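Oral uptake format: water-diluted acetone concentrate of compound is blended into IPL41 medium carrying 33%+15% sugar and offered under a parafilm membrane. Percentage of dead insects is recorded after 5 days.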

The test system of assay [2] is adult engorged female ticks (Rhipicephalus microplus). The assay can be described thus: Rhipicephalus (Boophilus) microplus injection test. Particulars: 168 h, egg deposition after 7 days, read-out: activity (efficacy: infertile eggs); for pest or weed control at 4 pg: application rate 4 pg/animal; for pest or weed control at 0.02 mg: application rate 20 μg/animal. In a few lines: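 Five adult engorged female ticks injected into the abdomen with 1 μL compound solution in DMSO, then held in a climate chamber. Fertile egg deposition assessed after 7 days, unclear eggs kept until hatching (about 42 days); efficacy 100% = all eggs infertile, 0% = all fertile.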

Assay [3] relates to Rhipicephalus microplus larvae (strain Parkhurst, resistant against synthetic pyrethroids). Nature of the assay: Rhipicephalus (Boophilus) microplus in-vitro contact test, larval cattle tick. Particulars: after 48 hours, read-out: activity (efficacy: larvae dead or moribund); for pest or weed control at 100 g/ha: application rate 1 pg/cm^2 (=100 g/ha); for pest or weed control at 500 g/ha: application rate 5 pg/cm^2 (=500 g/ha). In a few lines:
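Acetone solutions coated onto inner walls of glass tubes by rotation (900 ppm giving 5 μg/cm^2); after evaporation, 20-50 larvae added per tube and held at 27° C., 85% relative humidity. Efficacy read after 48 h from negative geotactic behaviour; 100% = all larvae dead or moribund.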

The test system of assay [4] is fall armyworm larvae (Spodoptera frugiperda). Nature of the assay: Spodoptera frugiperda spray test. Particulars: 168 h, read-out: activity (mortality). In short, it runs like this: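 Compound in acetone/DMF, diluted in water with 1000 ppm alkylarylpolyglycol ether emulsifier, sprayed on maize leaf sections. Dried leaves infested with fall armyworm larvae; % mortality after 7 days (100% = all killed, 0% = none).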

Assay [5] has as its system cattle ticks (Rhipicephalus microplus) strain Parkhurst, SP-resistant. Nature of the assay: Rhipicephalus (Boophilus) microplus dip test. The note with it: 168 h, application rate 100 ppm, egg deposition after 7 days, read-out: activity (efficacy: infertile eggs). On the procedure: Rhipicephalus (Boophilus) microplus—Din Test
Test animal: cattle ticks (Rhipicephalus microplus) strain Parkhurst, SP-resistant
Solvent: dimethyl sulfoxide
To produce a suitable preparation of active compound, 10 mg of active compound are dissolved in 0.5 mL solvent, and the concentrate is diluted with water to the desired concentration.
This compound solution is pipetted into tubes. 8-10 engorged, adult, female cattle ticks (Rhipicephalus microplus) are placed in perforated tubes. These tubes are immersed in the aqueous compound solution until the ticks are completely moistened. After the liquid has drained off, the ticks are transferred to a filter paper in a plastic tray and stored in a climate chamber.
After 7 days egg deposition of fertile eggs is monitored. Eggs where fertility is not visible are stored in a climate chamber till hatching after about 42 days. An efficacy of 100% means all eggs are infertile; 0% means all eggs are fertile.

The subject of assay [6] is Culex quinquefasciatus strain P00. Nature of the assay: Culex quinquefasciatus test (CULXFA surface treatment & contact assay). Particulars: 24 hours after contact, read-out: efficacy (mortality). On the procedure: Culex quinquefasciatus Test (CULXFA Surface Treatment & Contact Assay)
Solvent: Aceton+2000 ppm rapeseed oil methyl ester (RME)
In order to produce a sufficient, active ingredient containing solution it is necessary to solve the test compound in the solvent-mix (acetone at 2 mg/ml/RME 2 000 ppm). This solution is pipetted onto a glazed tile and after evaporation of the acetone, adult mosquitoes of the species Culex quinquefasciatus strain P00 are placed onto the dried surface. The exposure time is 30 minutes. Mortality in percent (%) is determined 24 hours after contact of the insects to the treated surface. 100% mortality means that all tested insects are dead, whereas 0% means that no insect died.

Assay [7] has as its system Aedes aegypti strain MONHEIM. Nature of the assay: Aedes aegypti test (AEDSAE surface treatment & contact assay). Particulars: 24 hours after contact, read-out: efficacy (mortality); for mortality at 20 mg/m2: surface concentration 20 mg/m^2, exposure 30 minutes; for mortality at 4 mg/m2: surface concentration 4 mg/m^2, exposure 30 minutes. In short, it runs like this:
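Compound in acetone (2 mg/ml) with 2000 ppm RME pipetted onto glazed tile and dried; adult Aedes aegypti MONHEIM exposed 30 min. Percent mortality scored 24 h after contact.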

For assay [8], the system named is adult unfed cat fleas (Ctenocephalides felis). The assay can be described thus: Ctenocephalides felis oral test. Particulars: 48 h, read-out: activity (mortality). In short, it runs like this: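 About 20 adult unfed fleas fed through parafilm on cattle blood containing compound (DMSO stock diluted in blood), blood held at 37 °C and fleas at room temperature. Mortality (%) scored after 2 days.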

The subject of assay [9] is adult brown dog ticks (Rhipicephalus sanguineus). Nature of the assay: Rhipicephalus sanguineus in-vitro contact test, adult brown dog ticks. Particulars: after 48 hours, read-out: activity (efficacy: ticks dead or moribund); for pest or weed control at 100 g/ha: application rate 1 pg/cm^2 (=100 g/ha); for pest or weed control at 5 µg/cm2, 500 g/ha: application rate 5 μg/cm^2 (=500 g/ha). In a few lines: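 Acetone solution (900 ppm giving 5 μg/cm²) coated on inner walls of glass tubes; after drying, 5-10 adult ticks added and held at room temperature 48 h. Ticks then placed on 45-50 °C plate ≤5 min; those unable to climb away scored dead/moribund, efficacy as % affected.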

Assay [10] deals with adult cat fleas (Ctenocephalides felis). The assay can be described thus: Ctenocephalides felis in-vitro contact test, adult cat flea. The note with it: application rate 5 μg/cm^2 (=500 g/ha), after 48 hours, read-out: activity (efficacy: fleas dead or moribund). In a few lines: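 Acetone solutions of compound coated onto inner walls of glass tubes (900 ppm giving […]); after drying, 5-10 adult Ctenocephalides felis added and held at room temperature. At 48 h, fleas placed on a 45-50° C heating plate; those unable to climb away scored dead or moribund, expressed as % efficacy.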

The test system of assay [11] is larvae of the southern green stink bug (Nezara viridula). Nature of the assay: Nezara viridula spray test. The note with it: 96 h, after 4 days; for mortality at 100 g/ha: application rate 100 g/ha; for mortality at 500 g/ha: application rate 500 g/ha. In a few lines: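 Compound in acetone/dimethylformamide, diluted in water with 1000 ppm alkylarylpolyglycol ether emulsifier, sprayed onto barley plants carrying stink bug larvae. Mortality (%) scored after 4 days, 100% meaning all insects killed.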

The test system of assay [12] is southern root-knot nematode (Meloidogyne incognita). The assay can be described thus: Meloidogyne incognita test. Particulars: 336 h, application rate 20 ppm, after 14 days, read-out: nematicidal activity (based on gall formation). As for the experimental part: Meloidoyne incognita—Test
Solvent: 125.0 parts by weight of acetone
To produce a suitable preparation of active compound, 1 part by weight of active compound is mixed with the stated amount of solvent, and the concentrate is diluted with water to the desired concentration.
Vessels are filled with sand, a solution of the active ingredient, a suspension containing eggs and larvae of the southern root-knot nematode (Meloidogyne incognita) and salad seeds. The salad seeds germinate and the seedlings grow. Galls develop in the roots.
After 14 days the nematicidal activity is determined based on the percentage of gall formation. 100% means no galls were found and 0% means the number of galls found on the roots of the treated plants was equal to that in untreated control plants.

Assay [13] has as its system two spotted spidermite (Tetranychus urticae). The assay can be described thus: Tetranychus urticae spray test OP-resistant. The note with it: 144 h, application rate 100 g/ha, after 6 days. On the procedure: Tetranychus urticae—Spray Test OP-Resistant
Solvent: 78.0 parts by weight acetone • 1.5 parts by weight dimethylformamide
Emulsifier: alkylarylpolyglycol ether
To produce a suitable preparation of active compound, 1 part by weight of active compound is mixed with the stated amount of solvents and is diluted with water, containing an emulsifier concentration of 1000 ppm, to the desired concentration. Further test concentrations are prepared by dilution with emulsifier containing water.
French bean (Phaseolus vulgaris) leaf disks infected with all instars of the two spotted spidermite (Tetranychus urticae), are sprayed with a preparation of the active ingredient of the desired concentration.
After 6 days mortality in % is determined. 100% means all spider mites have been killed and 0% means none of the spider mites have been killed.

The subject of assay [14] is larvae of the banded cucumber beetle (Diabrotica balteata). Nature of the assay: Diabrotica balteata spray test. Particulars: 168 h, after 7 days, read-out: activity (efficacy: seedlings grown); for pest or weed control at 100 g/ha: application rate 100 g/ha (=32 pg/well). In a few lines: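 Wheat seedlings, germinated 1 day on agar (5 seeds/well), sprayed with active compound in acetone/DMF diluted in water containing 1000 ppm emulsifier, then infested with 10-20 D. balteata larvae. Efficacy (%) scored after 7 days: 100% = seedlings grown as untreated uninfested control, 0% = no seedlings grown.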

Assay [15] deals with green peach aphid (Myzus persicae). Nature of the assay: Myzus persicae spray test. The note with it: 120 h, application rate 100 g/ha, after 5 days. In a few lines: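 Chinese cabbage leaf disks carrying all instars of M. persicae sprayed with compound in acetone/DMF, diluted in water with 1000 ppm alkylarylpolyglycol ether emulsifier. Percent mortality scored after 5 days (100% = all aphids killed).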

`C[C@H](NC(=O)c1cc(C(F)(F)F)cc(S(=O)(=O)C2CC2)c1)c1nc(C2CC2)nn1-c1ccc(C#N)cn1` [I-15]: the mortality at 4 ppm in assay [1] worked out at 100%. In assay [2], the pest or weed control at 4 pg is 100% and the pest or weed control at 0.02 mg turned out to be 100%. Moreover, in assay [3], the pest or weed control at 100 g/ha is 100% and the pest or weed control at 500 g/ha is 100%. Further, the mortality at 100 g/ha in [4] came out at 100%. The pest or weed control at 100 ppm in assay [5] stood at 80%. Also, the mortality at 4 mg/m2 in assay [6] (surface concentration 4 mg/m^2, exposure 30 minutes) fell in the range of 80 to 100%. Further, in assay [7], the mortality at 20 mg/m2 lay within 80 to 100%. In addition, the mortality at 100 ppm in [8] worked out at 100%. In addition, in [9], the pest or weed control at 100 g/ha was determined as 100% and the pest or weed control at 5 µg/cm2, 500 g/ha was found to be 100%.
As to `CCS(=O)(=O)c1cc(Cl)cc(C(=O)N[C@@H](C)c2ncnn2-c2ccc(C#N)cn2)c1` [II-20], the mortality at 4 ppm in [1] is 100%. Also, in assay [2], the pest or weed control at 4 pg is 100% and the pest or weed control at 0.02 mg came out at 100%. Besides, in assay [3], the pest or weed control at 100 g/ha was 100% and the pest or weed control at 500 g/ha came out at 100%. Moreover, in [4], the mortality at 100 g/ha turned out to be 83% and the mortality at 500 g/ha came to 100%. In assay [10], the pest or weed control at 5 µg/cm2 was 100%. In [11], this compound gave a mortality at 100 g/ha of 100% and a mortality at 500 g/ha of 100%. In addition, in assay [6] (surface concentration 20 mg/m^2, exposure 30 minutes), the mortality at 20 mg/m2 lay within 80 to 100%. Moreover, in assay [7], the mortality at 4 mg/m2 was in the range of 80 to 100% and the mortality at 20 mg/m2 lay in the range of 80 to 100%. For the same compound, the pest or weed control at 20 ppm in assay [12] was determined as 90%.
With `CCS(=O)(=O)c1cc(C(=O)N[C@@H](C)c2ncnn2-c2ccc(C#N)cn2)cc(C(F)(F)F)c1` [II-33], the mortality at 4 ppm in [1] came to 100%. For the same compound, the pest or weed control at 4 pg in assay [2] was found to be 100%. Besides, the pest or weed control at 0.02 mg in assay [2] was determined as 100%. Further, the pest or weed control at 100 g/ha in assay [3] stood at 100%; in assay [14] it was 100%; in [9], 80%. Also, the pest or weed control at 500 g/ha in assay [3] and in assay [14] (application rate 500 g/ha (=160 pg/well)) was 100% in each case. The figures for the mortality at 100 g/ha in assay [4], in [13] and in assay [11] were 100%, 90% and 100%, respectively. Also, the mortality at 500 g/ha is 83% in [4] and 100% in [11]. For the same compound, the mortality at 4 mg/m2 in assay [7] is 80 to 100%. In addition, the mortality at 20 mg/m2 in [7] lay in the range of 80 to 100%. Besides, the mortality at 100 ppm in assay [8] came to 100%.
As to `C[C@H](NC(=O)c1cc(C(F)F)cc(C2CC2)c1)c1ncnn1-c1ccc(C#N)cn1` [II-60], the mortality at 4 ppm in assay [1] came to 100%. Also, in assay [2], the pest or weed control at 4 pg is 100%. Further, the pest or weed control at 100 g/ha in assay [3], in assay [14] and in assay [9] was 100% each time. For the same compound, the pest or weed control at 500 g/ha in [3] was determined as 100%. The figures for the mortality at 100 g/ha in assay [4] and in assay [11] were 100% and 90%, respectively. Moreover, the pest or weed control at 5 µg/cm2 in assay [10] is 100%. Besides, in assay [8], the mortality at 100 ppm turned out to be 90%. In addition, the pest or weed control at 20 ppm in [12] is 90%. Moreover, the pest or weed control at 5 µg/cm2, 500 g/ha in assay [9] came to 100%.
Compound `Cc1nc([C@H](C)NC(=O)c2cc(OC(F)F)cc(C3CC3)c2)n(-c2ccc(C#N)cn2)n1` [II-63] displayed a mortality at 4 ppm in assay [1] of 100%. Also, the pest or weed control at 4 pg in assay [2] is 100%. Besides, the pest or weed control at 100 g/ha in [3], in assay [14] and in assay [9] was 100% each time. Besides, in assay [3], the pest or weed control at 500 g/ha worked out at 100%. Further, the mortality at 100 g/ha in assay [4] and in assay [15] was 100% in each case. Also, the pest or weed control at 5 µg/cm2 in [10] was 100%. In addition, the pest or weed control at 20 ppm in [12] stood at 90%. The pest or weed control at 5 µg/cm2, 500 g/ha in [9] amounted to 100%.

For orientation: mortality means the percentage killed.
